{
  "source": "paper PMC4626104",
  "about": "“Inhibition on Proteasome β1 Subunit Might Contribute to the Anti-Cancer Effects of Fangchinoline in Human Prostate Cancer Cells” (PLoS ONE, 2015)",
  "key": {"[1]": {"test_system": "caspase-3, PARP, LC-3B in PC-3 cells", "assay": "Western blotting of apoptosis and autophagy markers in PSMB6 knockdown PC-3 cells", "format": "cell-based, human", "details": "40 μM, 24 h", "description": "(§1) Western blotting assay was conducted as described before. Briefly, an aliquot of protein (100 μg) sample was loaded onto a 12% SDS gel, separated electrophoretically, and transferred to a Nitrocellulose membrane (Bio-Rad). After the membrane was incubated with 10 mM TBS with […] and 5% dehydrated skim milk to block nonspecific protein binding, the membrane was incubated with primary antibodies overnight at 4°C. The primary antibodies (all from Cell Signaling Technology) used were rabbit polyclonal antibody against human IκB-α (#4812, 1:400), Bax (#2772, 1:400), proteasome β1 subunit (PSMB6) (#13267, 1:500), β-actin (#4967, 1:400) and mouse monoclonal antibody against human p27 Kip1 (#3688, 1:400) or ubiquitin (#3936, 1:1000). After TBS washes, blots were then incubated with secondary antibody for 2 h at room temperature at a 1:1000 dilution and then visualized using chemiluminescence (Pierce Biotechnology, Rockford, IL, USA). The secondary antibodies used were HRP-linked goat anti-rabbit IgG (#7074) and HRP-linked horse anti-mouse IgG (#7076), both from Cell Signaling Technology.\nValidated siRNAs for PSMB6 (Sigma-Aldrich) were transfected into PC-3 cells by using Lipofectamine RNAiMAX (Invitrogen) according to the manufacturer’s protocol. Scrambled negative control siRNAs (Sigma-Aldrich) were used as negative control. […]"}, "[2]": {"test_system": "ubiquitinated proteins, IκB-α, Bax, p27 in PC-3 cells", "assay": "Western blotting of ubiquitinated proteins and proteasome substrates in PC-3 cells", "format": "cell-based, human", "description": "as §1"}, "[3]": {"target": "T1, purified human erythrocyte 20S proteasome (Homo sapiens, UniProt P28072)", "T1 construct": "purchased Enzo Life Sciences, Inc; host or cells: human erythrocytes", "assay": "C-L activity of purified human 20S proteasome", "format": "biochemical", "description": "The 20S proteasome assay kit was bought from Enzo Life Sciences, Inc. (Farmingdale, NY 11735, USA). The Km, Vmax values of the purified human erythrocyte 20S proteasome for fluorigenic peptide substrate Z-LLE-AMC are measured according to the instructions provided by the manufacturer. Inactivation of purified human erythrocyte 20S proteasome by fangchinoline was determined by monitoring the hydrolysis of substrate in the presence of different concentrations of fangcinoline. Assays were performed at 37°C in a reaction buffer (50 μL) containing 50 mM Tris/HCL, pH 7.5, 25 mM KCL, 10 mM NaCL, 1 mM MgCL2, 0.1 μg 20S proteasome and Z-LLE-AMC. Reactions were allowed to proceed for 120 min, and fluorescence data were collected every 1 min, and then plotted as a function of time. The apparent dissociation constant, Ki ^app, was determined by non-linear least-fit of the fractional velocity, vi/v0, as a function of [I], where vi is the steady state residual activity of the enzyme in the presence of inhibitor (I) and v0 is the initial velocity in the absence of inhibitor ( Vi/V0=1/1+[I]/Kiapp ). The dissociation constant, Ki, was calculated from the apparent dissociation constant, Ki ^app, using the following expression, where [S] is the substrate concentration and Km is the substrate binding constant ( Ki=Kiapp/1+[S]/Km )."}, "[4]": {"test_system": "T2, cellular proteasome of LnCap cells", "T2 construct": "endogenous in cells; host or cells: LnCap cells, whole cell extract", "assay": "Cellular proteasome activities of LnCap cells", "format": "cell-based, human", "details": "24 h", "description": "(§2) Cells were treated with either solvent control (0.1% DMSO), fangchinoline at different concentrations, or 1 μM carfilzomib (positive control) for 24 h at 37 °C. The enzymatic activities of cellular proteasome in cell lysate were measured as reported in our previous paper. Briefly, cells were harvested, washed with PBS and then lysed in proteasome activity assay buffer for 30 min at 4°C. The homogenate was then centrifuged at 12000 × g for 30 min at 4°C. The supernatant was collected as whole cell extract and the protein content in the supernatant was measured with the Bradford reagent. Catalytic activities of cellular proteasome were assayed by adding whole cell extract (containing 30 μg protein) to 100 μL of proteasome activity assay buffer containing 50 μM fluorogenic peptide substrates such as Z-LLE-AMC for detecting C-L activity, Z-ARR-AMC for detecting T-L activity or Suc-LLVY-AMC for detecting CT-L activity, respectively. The release of fluorogenic AMC from the peptide substrates was then measured as described above."}, "[5]": {"test_system": "T3, cellular proteasome of PC-3 cells", "T3 construct": "endogenous in cells; host or cells: PC-3 cells, whole cell extract", "assay": "Cellular proteasome activities of PC-3 cells", "format": "cell-based, human", "description": "as §2"}},
  "data": [
    {"compound": "COc1ccc2cc1Oc1ccc(cc1)C[C@H]1c3cc(c(OC)cc3CCN1C)Oc1c(O)c(OC)cc3c1[C@H](C2)N(C)CC3", "note": "[fangchinoline]", "values": [
      {"measurement": "Effect of knockdown of proteasome β1 subunit on markers of apoptosis (caspase-3, PARP) and autophagy (LC-3B)", "setting": "[1]", "result": "ameliorated fangchinoline-induced apoptosis and autophagy"},
      {"measurement": "Ubiquitinated IκBα (Ub-IκBα), Ub-p27 and Ub-Bax levels", "setting": "[2]", "result": "dose-dependently and time-dependently induced increase"},
      {"measurement": "Treatment time after which accumulation of ubiquitinated proteins was observed", "setting": "[2]; 27 μM", "result": 1, "unit": "h"},
      {"measurement": "Lowest dose at which accumulation of ubiquitinated proteins was observed", "setting": "[2]; 24 h treatment", "result": 8, "unit": "µM"},
      {"measurement": "Hydrolysis of substrate Z-LLE-AMC by 20S proteasome", "setting": "[3]; 500 μM fangchinoline, 75 μM Z-LLE-AMC", "result": "partly inhibited"},
      {"measurement": "Ki", "setting": "[3]; substrate Z-LLE-AMC, 37°C", "result": "357 ± 30.6", "unit": "µM"},
      {"measurement": "Effect on CT-L activity of cellular proteasome", "setting": "[4]", "result": "did not affect"},
      {"measurement": "Effect on T-L activity of cellular proteasome", "setting": "[4]", "result": "did not affect"},
      {"measurement": "Inhibition of C-L activity of cellular proteasome", "setting": "[4]", "result": "significantly inhibit"},
      {"measurement": "Inhibition of enzyme activity of cellular proteasome β1 subunit", "setting": "[5]; 10 μM, 24 h treatment", "result": "about 50%"},
      {"measurement": "Effect on chymotrypsin-like (CT-L) activity of cellular proteasome", "setting": "[5]; PC-3 cells, 24 h", "result": "not significantly affected"},
      {"measurement": "Effect on trypsin-like (T-L) activity of cellular proteasome", "setting": "[5]; PC-3 cells, 24 h", "result": "not significantly affected"},
      {"measurement": "Inhibition on C-L activity of cellular proteasome", "setting": "[5]; PC-3 cells, 24 h, doses of 1 and 10 μM", "result": "significant"}
    ]}
  ]
}
